Results taken from patent US7183318B2, “Substituted cyclic compounds, preparation method and pharmaceutical compositions containing them” (Les Laboratoires Servier, priority 1998, dated 2007).

SMILES	melting point [°C]
COC(=O)c1ccc2occ(CCNC(=O)C3CCCC3)c2c1 [Example 64, Methyl 3-{2-[(cyclopentylcarbonyl)amino]ethyl}1-benzofuran-5-carboxylate]	122 to 123
COC(=O)Nc1ccc2occ(CCNC(C)=O)c2c1 [Example 58, Methyl N-{3-[2-(acetylamino)ethyl]benzo[b]furan-5-yl}carbamate]	138 to 140
COC(=O)c1ccc2occ(CCNC(=O)C3CC3)c2c1 [Example 65, Methyl 3-{2-[(cyclopropylcarbonyl)amino]ethyl}-1-benzofuran-5-carboxylate]	154 to 155

Now from value to compound:

melting point [°C]	SMILES
158 to 159	CNC(=O)c1ccc2occ(CCNC(C)=O)c2c1 [Example 71, 3-[2-(Acetylamino)ethyl]-N-methyl-1-benzofuran-5-carboxamide]
110 to 112	NC(=O)c1ccc2occ(CCNC(=O)c3ccco3)c2c1 [Example 69, 3-[2-(2-Furoylamino)ethyl]-1-benzofuran-5-carboxamide]
209 to 210	NC(=O)c1ccc2occ(CCNC(=O)C3CC3)c2c1 [Example 68, 3-{2-[(Cyclopropylcarbonyl)amino]ethyl}-1-benzofuran-5-carboxamide]
170 to 171	CNC(=O)c1ccc2occ(CCNC(=O)C3CCCC3)c2c1 [Example 72, 3-{2-[(Cyclopentylcarbonyl)amino]ethyl}-N-methyl-1-benzofuran-5-carboxamide]
146 to 148	CC(=O)NCCc1coc2ccc(NC(=O)OC(C)(C)C)cc12 [Example 76, tert-Butyl 3-[2-(acetylamino)ethyl]-1-benzofuran-5-yl-carbamate]
